One may read the IC50 as the concentration at which inhibition is half-maximal. A high value points to weaker potency.

The record followed here is patent publication EP1526135A1, “Azabenzodiazepines as pde4 inhibitors” (Warner-Lambert Company LLC, priority 2003, dated 2005).

In this experiment the test system is type 4 phosphodiesterases. The experiment is described as follows: Inhibition of type 4 phosphodiesterase enzymatic activity (cytosolic preparation from U937 cells). Type of experiment: biochemical. The following applies: PDE4 from cytosolic preparation of human cell line U937; inhibitor concentration range 0.1 to 100 µM. Here is the method: The capacity of the compounds of formula (I) of the invention to inhibit cyclic nucleotide phosphodiesterases is evaluated by measuring their IC50 (concentration needed to inhibit 50% of the enzymatic activity). In the case of PDE4 enzymes, this value is compared to the IC50 value for rolipram, a reference inhibitor for PDE4 enzymes.
The type 4 phosphodiesterases are obtained from a cytosolic preparation extracted from a cell line of human origin, U937, according to the method adapted from T. J. Torphy et al., 1992, J. Pharm. Exp. Ther. 263: 1195-1205.
The measurement of the enzymatic activity for the various types of PDE, and in particular the PDE4 enzymes, is carried out according to a method adapted from W. J. Thomson et al. 1979, Advances in Cyclic Nucleotide Research, Vol. 10: 69-92, ed. G. Brooker et al. Raven Press, NY.
For the determination of the IC50 value, the enzymatic activity is measured in the presence of the inhibitor in a concentration range from 0.1 to 100 µM.
The compound `COc1cc2c3c(n1)C(c1ccccc1)=NC(NC(=O)c1cccnc1)C(=O)N3CC2` (racemic) [racemate of compound of Example 1, N-(4-Methoxy-9-oxo-6-phenyl-1,2,8,9-tetrahydro-5,7,9a-triaza-benzo[cd]azulen-8-yl)-nicotinamide] came in with an IC50 of 6.1 µM. `COc1cc2c3c(n1)C(c1ccccc1)=NC(NC(=O)c1cccnc1)C(=O)N3CC2` (stereo not drawn) [first enantiomer (Rt=5.79 min) of compound of Example 1, N-(4-Methoxy-9-oxo-6-phenyl-1,2,8,9-tetrahydro-5,7,9a-triaza-benzo[cd]azulen-8-yl)-nicotinamide] gave a concentration for half-maximal inhibition (IC50) of 4.3 µM. Regarding `COc1cc2c3c(n1)C(c1ccccc1)=NC(NC(=O)c1cccnc1)C(=O)N3CC2` (stereo not drawn) [second enantiomer (Rt = 8.15 min) of compound of Example 1, N-(4-Methoxy-9-oxo-6-phenyl-1,2,8,9-tetrahydro-5,7,9a-triaza-benzo[cd]azulen-8-yl)-nicotinamide], the IC50 stood at 73 µM.
